For assay [1], the system named is phospho(Ser63)-c-jun in HK-2 cells. The assay is described as follows: Cell-based assay for JNK inhibitors: in-cell ELISA of TNFα-stimulated phospho(Ser63)-c-jun in HK-2 cells. The note with it: Homo sapiens, 10 ng/mL TNFα, 60 min preincubation with compound. How it is done:
Cell-Based Assay for JNK Inhibitors
The cell-based assay employed the in-cell ELISA method to determine the ability of compounds to prevent the generation of phospho(Ser63)-c-jun in HK-2 cells (human proximal tubule cells) in response to stimulation with tumor necrosis factor α (TNFα). In brief, for quantification of phospho(Ser63)-c-jun, the cells (in 96-well format) were fixed and permeablized then incubated sequentially with a rabbit anti-phospho-c-jun First Antibody specific for the presence of the phospho-Ser63 epitope and a donkey anti-rabbit IgG Second Antibody linked to horseradish peroxidase (HRP) for colorimetric quantitation of binding. For determination of non-specific binding of the First Antibody, Blank wells were preincubated with a mouse anti-phospho(Ser63)-c-jun Blocking Antibody that prevented specific binding of the First Antibody to the phospho-Ser63 epitope, but which was not recognized by the donkey anti-rabbit IgG Second Antibody. […] Blank wells received no TNFα stimulation or compound. Additional Control wells received TNFα stimulation, but no compound. The signal obtained in this case was considered the value for 0% inhibition (Control value).
Stock cultures of HK-2 cells (ATCC, Manassas, Va.) were grown under a 5% CO2/[…] atmosphere at 37 degrees C. in Keratinocyte-SFM medium (KSFM, Invitrogen, Grand Island, N.Y.) containing 5 μg/L epidermal growth factor and 5 mg/L bovine pituitary extract (both supplied with the medium), additionally supplemented with 10% (v/v) fetal calf serum (FCS; Invitrogen, Grand Island, N.Y.) and 1% (v/v) antibiotic-antimycotic (ABAM: Sigma, St. Louis, Mo.). For assays, cells were seeded in collagen coated 96-well polystyrene plates (BD Biosciences, Franklin Lakes, N.J.) at a density of 40,000 cells/well and cultured for 24 h in the same medium (100 μL/well) followed by a further 16-24 h in 100 μL of similar medium, but without FCS. […] Cells were incubated for a further 30 minutes and then the medium was aspirated and the wells washed with 100 μL/well PBS followed by the addition of 100 μL 3.7% (v/v) Formaldehyde (Fisher Scientific, Fair Lawn, N.J.) in PBS. Plates were then allowed to stand at room temperature for 20 minutes before being washed with 200 μL/well of PBS. (Further steps were performed immediately or the plates were stored at 4 degrees C. and the assay completed the next day.) To each well was added 100 μL 1% (v/v) TritonX-100 (Sigma, St. Louis, Mo.) in PBS followed by 20 minutes standing at room temperature, washing with 200 μL/well PBS, the addition of 100 μL/well of Quenching buffer (1% (v/v) hydrogen peroxide (Sigma, St. Louis, Mo.) and 0.1% (w/v) sodium azide (Fisher Scientific, Fair Lawn, N.J.)) in PBS and a further 20 minutes at room temperature. Plates were then washed twice with 200 μL/well of 0.1% (v/v) Tween-20 (Teknova, Hollister, Calif.) in PBS before addition of 200 μL/well of 2% BSA/0.10% Tween-20 in PBS and a further 1 hour at room temperature. At this time, buffer was removed from Blank wells and replaced with 90 μL/well of mouse anti-phospho-c-jun-Ser63 (BD Bioscience, 558036) diluted 1:4000 in PBS containing 1% BSA/0.1% Tween-20 (Antibody Dilution Buffer). All other wells are replaced with 90 μL/well of rabbit anti-phospho-c-jun-Ser63 (Cell Signaling, 9261) diluted 1:250 in Antibody Dilution Buffer. After a further one hour, rabbit anti-phospho-c-jun-Ser63 is added directly to the solution in the Blank wells resulting in 1:250 dilution of this antibody. Plates were then placed on a slowly rotating platform at 4 degrees C. overnight. Wells were then washed thrice with 200 μL/well PBS/0.1% Tween-20. After addition of the third wash, the plates were placed on a slowly rotating platform for 15 minutes at room temperature. […]

In another assay the target is JNK1 (Homo sapiens, UniProt P45983). The assay is described as follows: In vitro JNK1 Assay (TR-FRET, phosphorylation of GST-c-Jun). The format is biochemical. Particulars: 0.2 nM JNK1, 26.7 nM GST-c-Jun, 2 μM ATP. How it is done: Phosphorylation of GST-c-Jun protein (amino acid residues 1-79) was measured as JNK1 activity. […] The reaction buffer contained 50 mM HEPES, pH 7.0, 10 mM MgCl2, 1 mM DTT, 0.1 mM Na3 VO4 and 0.2 mg/mL BSA. After 30 min. incubation at room temperature, the reaction was terminated by adding buffer containing 8 mM EDTA and a polyclonal anti-phospho-c-Jun antibody (Cell Signaling #9261L), followed by an additional incubation of 30 min. at room temperature. […] Time-resolved Fluorescence Resonance Energy Transfer (TR-FRET) signals were measured 1 hr. later on the EnVision reader (Perkin Elmer). Compound potency was assessed at 10 serially diluted concentrations. Percentage of inhibition at each concentration was determined to generate an IC50 value for each compound.

In assay [2] the test system is phospho-(Ser63)-c-jun. The experiment in a line: Mouse In Vivo TNFα-Induced Kidney and Liver Phospho-c-Jun Assay. Set-up: species or system C57/BL6 mice. Particulars: Example B, procedures identical to Example A. On the procedure: Male C57/BL6 mice were obtained from Jackson Labs and acclimatized for at least one week prior to use at age 10-12 weeks. Mice (n=8 per group) were administered Compound I-1 (Group 3; 50 mg/kg from a 12.5 mg/mL preparation in 20% (v/v)DMSO/80% (v/v) PEG400) or vehicle alone (Groups 1 and 2) via oral gavage. One hour later, mice received an intravenous challenge of 5 μg/kg recombinant mouse TNFα (Sigma) in saline (Groups 2 and 3) or saline alone (Group 1). After a further 1 h, the animals were killed by carbon dioxide inhalation. Kidneys and livers were removed, rapidly frozen in liquid nitrogen and stored at −80 degrees until analysis.
For analysis of livers, portions of frozen tissue (100-200 mg) were homogenized in lysis buffer (Cell Signaling Technology) supplemented with 1% (v/v) of each of Phosphatase Inhibitor Cocktail-1 (Sigma), Phosphatase Inhibitor Cocktail-2 (Sigma), Protease Inhibitor Cocktail (Sigma) and 1 mM AEBSF (Sigma). The phospho-(Ser63)-c-jun content was quantified using an ELISA kit (Cell Signaling Technology).
Experimental procedures were identical to Example A, but using 7-chloro-3-(4-methanesulfonyl-benzyl)-4-oxo-1-phenyl-1,4-dihydro-quinoline-2-carboxylic acid methyl ester.

For assay [3], the system named is phospho-(Ser63)-c-jun. The assay is described as follows: Rat In Vivo TNFα-Induced Kidney Phospho-c-Jun Assay. Also on record: species or system Sprague-Dawley rats. The note with it: Example D, 2 doses of 75 mg/kg oral (0 and 12 h), TNFα 2.5 ug/kg i.v. at 23 h, killed 1 h later, normalized to Group 2 as 100%, mean (standard deviation). How it is done:
Male Sprague-Dawley rats were obtained from Charles River and acclimatized for at least one week prior to use at age 6-8 weeks. Rats (n=8 per group) were administered Compound I-1 (Group 3; 75 mg/kg from a Microprecipitated Bulk Powder formulation resuspended in Klucel vehicle at 18.75 mg/mL) or vehicle alone (Groups 1 and 2) via oral gavage. Seven hours later, rats received an intravenous challenge of 2.5 μg/kg recombinant rat TNFα (Sigma) in saline (Groups 2 and 3) or saline alone (Group 1). After a further 1 h, the animals were killed by carbon dioxide inhalation. Kidneys were removed, rapidly frozen in liquid nitrogen and stored at −80 degrees until analysis.
Sample analysis was performed as described for mouse kidneys in Example a.
Male Sprague-Dawley rats were obtained from Charles River and acclimatized for at least one week prior to use at age 6-8 weeks. Rats (n=8 per group) were administered Compound I-1 (Groups 3 and 4; 75 mg/kg from a Microprecipitated Bulk Powder formulation resuspended in Klucel vehicle at 18.75 mg/mL) or vehicle alone (Groups 1 and 2) via oral gavage. Group 3 received an additional identical dose 12 hours later. Group 4 received an additional identical dose at 8 and 16 hours after the first dose. […]

From patent US8471027B2, “Adamantyl compounds” (Hoffmann-La Roche Inc., priority 2011, dated 2013) come the findings set out here.

Usually EC50 stands for the concentration giving half of the maximal effect. By IC50 is commonly meant the point on the concentration scale where inhibition reaches its midpoint. The low end stands for greater potency, the high end for weaker potency.

JNK1, sequence (P45983 whole entry, species assumed, the tested form may be a part): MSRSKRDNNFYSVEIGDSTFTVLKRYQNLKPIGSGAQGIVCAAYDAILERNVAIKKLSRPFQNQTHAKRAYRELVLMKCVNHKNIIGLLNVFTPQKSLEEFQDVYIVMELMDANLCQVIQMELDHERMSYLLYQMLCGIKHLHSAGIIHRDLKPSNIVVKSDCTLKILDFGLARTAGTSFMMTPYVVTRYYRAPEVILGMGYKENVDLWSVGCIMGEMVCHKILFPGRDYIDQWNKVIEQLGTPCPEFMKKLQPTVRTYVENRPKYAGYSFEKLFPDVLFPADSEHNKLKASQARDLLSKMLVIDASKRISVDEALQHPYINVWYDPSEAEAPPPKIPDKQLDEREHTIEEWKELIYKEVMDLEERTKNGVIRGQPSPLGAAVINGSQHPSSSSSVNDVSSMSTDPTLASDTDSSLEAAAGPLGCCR

Consider `COC(=O)c1c(Cc2ccc(S(C)(=O)=O)cc2)c(=O)c2ccc(Cl)cc2n1-c1ccccc1` [7-chloro-3-(4-methanesulfonyl-benzyl)-4-oxo-1-phenyl-1,4-dihydro-quinoline-2-carboxylic acid methyl ester, reference compound], for which the EC50 in assay [1] was found to be 15000 nM. The compound also had a concentration for half-maximal inhibition (IC50) at JNK1 of 32 nM. In the assay with phospho-(Ser63)-c-jun [2], the “effect on the levels of phospho-(Ser63)-c-jun in the kidneys” value is given as “No significant effect” and the “effect on the levels of phospho-(Ser63)-c-jun in the livers” value is “No significant effect”.
Regarding `COC(=O)c1c(Cc2ccc(C(=O)N[C@@H]3[C@@H]4C[C@@H]5C[C@H]3C[C@@](O)(C5)C4)cc2)c(=O)c2cccnc2n1-c1ccccc1` [Compound I-1, rel-3-[4-((1S,2S,3R,5S,7S)-5-Hydroxy-adamantan-2-ylcarbamoyl)-benzyl]-4-oxo-1-phenyl-1,4-dihydro-[1,8]naphthyridine-2-carboxylic acid methyl ester], in assay [1], the EC50 was determined as 4100 nM. This compound displayed an IC50 on JNK1 of 12 nM. The Kidney phospho-c-jun in the assay on phospho-(Ser63)-c-jun [3] is recorded as 59.6 (30.0) %.
With `COC(=O)c1c(Cc2ccc(C(=O)N[C@@H]3[C@@H]4C[C@@H]5C[C@H]3C[C@@](O)(C5)C4)cc2OC)c(=O)c2cccnc2n1-c1ccccc1` [Compound I-23, rel-3-[4-((1S,2S,3R,5S,7S)-5-Hydroxy-adamantan-2-ylcarbamoyl)-2-methoxy-benzyl]-4-oxo-1-phenyl-1,4-dihydro-[1,8]naphthyridine-2-carboxylic acid methyl ester], in assay [1], the EC50 is 7800 nM. On JNK1, this compound gave an IC50 of 27 nM.
For `COC(=O)c1c(Cc2ccc(C(=O)N[C@@H]3[C@@H]4C[C@@H]5C[C@H]3C[C@@](O)(C5)C4)cc2F)c(=O)c2cccnc2n1-c1ccccc1` [Compound I-24, rel-3-[2-Fluoro-4-((1S,2S,3R,5S,7S)-5-hydroxy-adamantan-2-ylcarbamoyl)-benzyl]-4-oxo-1-phenyl-1,4-dihydro-[1,8]naphthyridine-2-carboxylic acid methyl ester], the EC50 in assay [1] stood at 8600 nM. The compound also showed an IC50 against JNK1 of 34 nM.
With `COC(=O)c1c(Cc2ccc(C(=O)N[C@@H]3[C@@H]4C[C@@H]5C[C@H]3C[C@@](O)(C5)C4)cc2)c(=O)c2ccc(C(F)(F)F)nc2n1-c1ccccc1` [Compound I-25, rel-3-[4-((1S,2S,3R,5S,7S)-5-Hydroxy-adamantan-2-ylcarbamoyl)-benzyl]-4-oxo-1-phenyl-7-trifluoromethyl-1,4-dihydro-[1,8]naphthyridine-2-carboxylic acid methyl ester], the EC50 in assay [1] worked out at 3600 nM. At JNK1, this compound displayed a half-maximal inhibitory concentration (IC50) of 77 nM.
As to `COC(=O)c1c(Cn2ccc(C(=O)N[C@@H]3[C@@H]4C[C@@H]5C[C@H]3C[C@@](O)(C5)C4)cc2=O)c(=O)c2ccc(Cl)cc2n1-c1ccccc1` [Compound I-26, rel-7-Chloro-3-[4-((1S,2S,3R,5S,7S)-5-hydroxy-adamantan-2-ylcarbamoyl)-2-oxo-2H-pyridin-1-ylmethyl]-4-oxo-1-phenyl-1,4-dihydro-quinoline-2-carboxylic acid methyl ester], the EC50 in assay [1] was determined as 3900 nM. The compound also returned an IC50 on JNK1 of 40 nM.
The like results for `O=C(N[C@@H]1[C@@H]2C[C@@H]3C[C@H]1C[C@@](O)(C3)C2)c1ccc(Cc2c(-c3ncco3)n(-c3ccccc3)c3cc(Cl)ccc3c2=O)cc1` [Compound I-27, Rel-4-(7-Chloro-2-oxazol-2-yl-4-oxo-1-phenyl-1,4-dihydro-quinolin-3-ylmethyl)-N-((1S,2S,3R,5S,7S)-5-hydroxy-adamantan-2-yl)-benzamide] were, in that order, 8600 nM and 27 nM.
